Key:
MAGE-A3 TCR (TCR-1) [1] = test: Kinetic binding of TCR to peptides (Octet BLI); details: Table 3; Ala mutants of Peptide-5 and controls
Experimental: BLI based kinetic binding of TCR to peptides was measured using a ForteBio Octet RED96 instrument. Biotinylated peptides were first directly captured on streptavidin biosensors. Sensors were quenched using excess biocytin and then baselined in buffer. A dilution series of TCR was made and associated onto the peptide loaded biosensor. Association and dissociation signals were monitored in real-time. Signals were fit to a 1:1 binding model in order to derive binding constants, kon and koff, as well as KD.

[2] = system: TCR-1 binding to MAGE-A3 pMHC; test: Inhibition of kinetic binding of TCR to its cognate pMHC (BLI); details: Table 3
Experimental: First, biotinylated pMHC was captured on streptavidin biosensors. Sensors were quenched using excess biocytin and then baselined in buffer. Inhibitory peptide was titrated in a two fold dilution series starting from 100 uM and pre-incubated with a constant concentration of 50 nM TCR. Peptide and TCR mixtures were then associated onto the pMHC loaded biosensor. Zero concentration of inhibitory peptide or zero concentration of TCR were used as controls. Association and dissociation signals were monitored in real-time. The maximal association signal was normalized from 100% (0 uM inhibitory peptide control) to 0% (0 nM TCR control) and plotted versus log-scale inhibitory peptide concentration.

[3] = molecular target: TCR-1 binding to MAGE-A3 pMHC; test: Inhibition of equilibrium binding of TCR to its cognate pMHC (ELISA)
Experimental: Inhibition of TCR binding to its cognate pMHC was also measured in an ELISA format. Biotinylated pMHC was captured on neutravidin coated plates, quenched using excess biocytin, and washed. Inhibitory peptide was titrated in a half-log dilution series starting from 100 uM and pre-incubated with a constant concentration of 1 nM TCR. Inhibitory peptide and TCR mixtures were then incubated on the pMHC captured plates. A secondary HRP antibody conjugate that recognized the histag of the TCR was then used to detect the plate bound TCR. […] Dose dependent decrease of signal was indicative of peptides that compete for TCR binding to its cognate pMHC.

TCR-1 = test: Inhibitory peptide specificity evaluation (BLI); format: binding; details: 100 uM TCR on Peptide-5 saturated biosensor
Experimental: (§1) Potent inhibitory peptides were tested for TCR specific binding. […] This family of TCRs differ in sequence by point mutations in the CDR domains know to contribute to binding affinity and specificity for cognate MAGE-A3 pMHC. […] TCRs were associated at the extreme concentration of 100 uM onto the inhibitory peptide loaded biosensor. In parallel, 100 uM TCRs were associated on a blank control sensor to establish background signal related to non-specific binding of the TCRs. Association and dissociation signals were monitored in real-time.

TCR-2 = test: Inhibitory peptide specificity evaluation (BLI); format: binding; details: 100 uM TCR on Peptide-5 saturated biosensor
Experimental: as §1

TCR-3 = test: Inhibitory peptide specificity evaluation (BLI); format: binding; details: 100 uM TCR on Peptide-5 saturated biosensor
Experimental: as §1

TCR-4 = test: Inhibitory peptide specificity evaluation (BLI); format: binding; details: 100 uM TCR on Peptide-5 saturated biosensor
Experimental: as §1

neutravidin alone = neutravidin alone (Gallus gallus, UniProt P02701); test: Phagemid ELISA, neutravidin background; format: binding; details: clonal phage displaying the peptide; ELISA signal on neutravidin alone
Experimental: The next day the deep well plates were centrifuged to separate the soluble phagemid from the E. coli cells. The phagemid containing supernatants were then combined with PBS-Tween 20 (0.05%) + BSA (1%) blocking buffer and incubated in ELISA wells containing Neutravidin captured biotin-conjugated target or Neutravidin alone. After binding at 4 degrees the plates were washed, and specifically bound phage were detected by anti-m13 HRP conjugated antibodies using standard TMB-based chromogenic ELISA procedures. Daughter plates or individual wells were subjected to standard DNA sequencing for clonal peptide sequence identification.
The next day the deep well plates were centrifuged to separate the soluble phagemid from the E. coli cells. The phagemid containing supernatants were then combined with PBS-Tween 20 (0.05%) + BSA (1%) pH neutral blocking buffer and incubated in previously TCR coated and blocked wells. After binding at 4° C. the plates were washed and specifically bound phage were detected by anti-m13 HRP conjugated antibodies using standard TMB-based chromogenic ELISA procedures (FIG. 17B). Daughter plates or individual wells were subjected to standard DNA sequencing for peptide identification.

MAGE-A3 TCR (TCR-1) [4] = test: Equilibrium binding of TCR to peptides (ELISA); details: Table 3
Experimental: Peptide binding was also examined in an ELISA format. Biotinylated peptides were captured on neutravidin coated plates. TCR was then prepared in a half-log dilution series starting from 10 uM and titrated onto the peptide captured plates. […] The concentration of TCR required to observe half maximal binding signal (EC50) was then calculated using Graphpad Prism.

neutravidin alone, sequence (P02701 25-152): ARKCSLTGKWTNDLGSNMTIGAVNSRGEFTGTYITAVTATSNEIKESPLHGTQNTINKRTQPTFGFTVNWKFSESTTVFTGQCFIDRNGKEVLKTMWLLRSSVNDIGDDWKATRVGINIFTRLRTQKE

Row | Compound | Octet BLI Binds TCR (MAGE-A3 TCR (TCR-1) [1]) | Octet BLI Competes at 100 uM [2] | IC50 ([3]; Table 2, 1 nM TCR) [nM] | IC50 ([3]; Table 3) [nM] | binding of Peptide-5 to TCR-1 (TCR-1) | binding of Peptide-5 to TCR-2 (TCR-2) | binding of Peptide-5 to TCR-3 (TCR-3) | binding of Peptide-5 to TCR-4 (TCR-4) | Phage ELISA NAv bkgd (neutravidin alone) | EC50 (MAGE-A3 TCR (TCR-1) [4]) [nM]
1 | CC(C)[C@H](NC(=O)CNC(=O)CN)C(=O)N[C@@H](CO)C(=O)N[C@H]1CSSC[C@@H](C(=O)N[C@@H](Cc2c[nH]c3ccccc23)C(=O)N[C@H](C(=O)NCC(=O)NCC(=O)NCC(=O)NCC(=O)N[C@@H](CO)C(=O)NCCOCCOCCOCCOCCC(=O)N[C@@H](CCCCNC(=O)CCCC[C@@H]2SC[C@@H]3NC(=O)N[C@@H]32)C(N)=O)[C@@H](C)O)NC(=O)[C@H](Cc2ccccc2)NC(=O)[C@H](C)NC(=O)[C@H](CCC(=O)O)NC(=O)[C@H](CC(=O)O)NC(=O)[C@H](Cc2ccc(O)cc2)NC(=O)[C@H](C(C)C)NC(=O)[C@H](CC(=O)O)NC(=O)[C@H](CCCCN)NC1=O [Peptide-5] | Yes | Yes | 600 | 600 | readily bound | signal was identical to that of background | signal was identical to that of background | signal was identical to that of background |  | 
2 | CC(C)[C@H](NC(=O)[C@@H]1CSSC[C@H](NC(=O)CNC(=O)CNC(=O)CN)C(=O)N[C@@H](Cc2ccccc2)C(=O)N[C@@H](C(C)C)C(=O)N[C@@H](CO)C(=O)N2CCC[C@H]2C(=O)N[C@@H](C)C(=O)N[C@@H]([C@@H](C)O)C(=O)NCC(=O)N[C@@H](Cc2ccccc2)C(=O)N[C@@H]([C@@H](C)O)C(=O)N[C@@H](Cc2c[nH]c3ccccc23)C(=O)N1)C(=O)NCC(=O)NCC(=O)NCC(=O)NCC(=O)N[C@@H](CO)C(=O)NCCOCCOCCOCCOCCC(=O)N[C@@H](CCCCNC(=O)CCCC[C@@H]1SC[C@@H]2NC(=O)N[C@@H]21)C(N)=O [Peptide-17] |  |  |  |  |  |  |  |  | 0.13 | 
3 | CC(C)[C@H](NC(=O)CNC(=O)CN)C(=O)N[C@@H](CO)C(=O)N[C@@H](C)C(=O)N[C@@H](CCCCN)C(=O)N[C@@H](CC(=O)O)C(=O)N[C@H](C(=O)N[C@@H](Cc1ccc(O)cc1)C(=O)N[C@@H](CC(=O)O)C(=O)N[C@@H](CCC(=O)O)C(=O)N[C@@H](C)C(=O)N[C@@H](Cc1ccccc1)C(=O)N[C@@H](CS)C(=O)N[C@@H](Cc1c[nH]c2ccccc12)C(=O)N[C@H](C(=O)NCC(=O)NCC(=O)NCC(=O)NCC(=O)N[C@@H](CO)C(=O)NCCOCCOCCOCCOCCC(=O)N[C@@H](CCCCNC(=O)CCCC[C@@H]1SC[C@@H]2NC(=O)N[C@@H]21)C(N)=O)[C@@H](C)O)C(C)C [Peptide-23] | Yes | Yes |  |  |  |  |  |  |  | > 10000

Source: patent US20230220105A1, “TUMOR ACTIVATED T CELL ENGAGERS AND METHODS OF USE THEREOF” (Janux Therapeutics, Inc., priority 2019, published 2023)
